Measurements from patent US5736523A, “Antineoplastic heteronapthoquinones” (Biochem Pharma Inc., priority 1995, dated 1998).
Structures can show the parent of a compound that is named as a salt.

test system: SKVLB (Ovarian; multidrug resistant); test: In vitro cytotoxicity, microculture tetrazolium (MTT) assay, SKVLB; type: cell-based, human; conditions: Homo sapiens, SKVLB, multidrug resistant; read-out: IC50
Procedure: In Vitro Cytotoxicity--Microculture Tetrazolium Assay
The microculture tetrazolium assay was used to test in vitro cytotoxicity. This assay is described in Plumb, J. A. et al., 1989 Cancer Research 49, 4435-4440, which is herein incorporated by reference. The cytotoxicity of compounds towards tumor cells is measured in vitro using the assay. This assay method is based upon the ability of live, but not dead cells to reduce the yellow water soluble dye 3-(4;5-dimethylthiazol-2-yl)-2,5-diphenyltetrazolium bromide (MTT) to its water insoluble purple formazan product.
Human Tumor Cell lines, used were:
SKVLB (Ovarian; multidrug resistant)--Dr. V. Ling, Ontario
The cells were maintained in exponential growth in culture in minimal essential media (MEM) supplemented with non-essential amino acids, and containing 15% (v/v) fetal bovine serum, 5 mM L-glutamine, 1 mM sodium pyruvate, and 0.1 U/ml insulin. All cell lines were grown at 37° C. in an atmosphere of 5% CO2 in air.
Test compounds: 20 mM in DMSO and diluted to a final concentration of 200 μM in culture medium before use.
The following is the generic description of the assay method. It should be noted that although the conditions described work well with the cells listed above, the initial plating density and the MTT concentration used should be verified for each new cell line used to test compounds.
For each assay, doxorubicin is included as an inter-assay standard. This allows us to monitor the behaviour of the assay in general, and in particular, to check that the SKVLB line has maintained its resistant phenotype.
The plate layout is done in the following manner: The assays are carried out in 96-well (8 well×12 well) microtiter plates. Serial dilutions of the compound are tested along the length of the plate. A 1:3 serial dilution of compound in culture medium covers a concentration range from 100 μM to 1.7 nM. Each concentration of compound is tested in quadruplet, allowing two compounds to be tested per plate. Wells containing no cells (blank) and cells with no test compound (control) are included on each plate.
Cells are plated out in 100 μl of culture medium in the microtiter plates at a density of around 1,500-4,000 cells per well. The plates are incubated overnight to allow the cells to become adherent after which the test compound is added (100 μl of appropriate dilution per well). The cells are incubated with test compound at 37° C. for 48 h after which the compound is replaced with fresh medium. After a further 48 h incubation at 37° C., 50 μl of MTT solution (2 mg/ml) is added to each well. The plates are incubated in the dark for 4 h at 37° C. after which the medium is removed. The MTT formazan product is extracted from the cells by the addition of 200 μl DMSO followed by 50 μl of Sorensen's buffer. The plates are shaken briefly and the absorbance at 570 nm is read using a Molecular Devices UV max plate reader. Curves are fit to the MTT assay data using a four parameter logistic equation, and the data are normalized to fit a 0% to 100% survival scale.

**Q.** Which IC50 does the source give for `CO[C@H]1O[C@H](C(=O)Nc2ccccc2)CC2=C1C(=O)c1ccccc1C2=O` (relative stereo) [BCH2041, (1,3-trans)-1-methoxy-3-N-anilinylcarbonyl-5,10-dioxo-3,4,5,10-tetrahydro-1H-naphtho-[2,3-c]-pyran] here?
**A.** Its IC50 is 10 µM.

same assay, conditions: ratio SKVLB / SKOV3

**Q.** `COC(=O)[C@@H](N)COC1OC(C(C)=O)CC2=C1C(=O)c1ccccc1C2=O` (mixture of isomers) [BCH1654, (1S,2'S,3R) and (1R,2'S,3S)-methyl-(1-[O-serinemethyl ester]-5,10-dioxo-3,4,5,10-tetrahydronaphtaleno [2,3-C]pyran-3-yl) ketone hydrochloride] was tested. Which VLB/OV3 did it give?
**A.** Its VLB/OV3 is 5.25.

**Q.** `C[C@@H]1O[C@@H](OC2OC(C#N)CC3=C2C(=O)c2ccccc2C3=O)C[C@H](NC(=O)C(F)(F)F)[C@@H]1O` (mixture of isomers) [BCH1688, (1'-S,1-R,3-S) and (1'-S,1-S,3-R)-3-cyano-1-[2',3',6'-trideoxy-3'-trifluoroacetamido-4'-hydroxy-L-lyxohexopyranose)-5,10-dioxo-3,4,5,10-tetrahydronaphtho-[2,3-C] pyran-3-yl] was tested. Which VLB/OV3 did it give?
**A.** Its VLB/OV3 is 4.37.

**Q.** With `CC(=O)C1CC2=C(C(=O)c3ccccc3C2=O)C(OCC2CCCN(C(=O)OC(C)(C)C)C2)O1` (mixture of isomers) [BCH2060, Methyl-(1-O-[N-BOC-3-piperidinemethanol]-5,6-dioxo-3,4,5,10-tetrahydronaphthaleno-[2,3-c]pyran-3-yl) ketone, mixture of isomers] as the compound, how does the VLB/OV3 read?
**A.** The VLB/OV3 was 2.19.

**Q.** With `CC(=O)C1CC2=C(C(=O)c3ccccc3C2=O)C(OCC2CCCNC2)O1` (mixture of isomers) [BCH2061, Methyl-(1-O-[3-piperidinemethanol]-5,10-dioxo-3,4,5,10-tetrahydronaphthaleno-[2,3-c]pyran3-yl) ketone hydrochloride salt, mixture of isomers] as the compound, how does the VLB/OV3 read?
**A.** Its VLB/OV3 is 18.

**Q.** Which VLB/OV3 does the source give for `CC(=O)C1CC2=C(C(=O)c3ccccc3C2=O)C(O[C@H]2C[C@H](NC(=O)C(F)(F)F)[C@H](OS(C)(=O)=O)[C@H](C)O2)O1` (mixture of isomers) [BCH2095, (1'-S,1-S,3-R) and (1'-S,1-R,3-S)-methyl-(1-[2',3',4',6' tetradeoxy-3'-trifluoroacetamido-4'-O-methane-sulfonyl-L-lyxohexopyranose)-5,10-dioxo-3,4,5,10 tetrahydronaphtho-[2,3-c]pyran-3-yl) ketone] here?
**A.** The VLB/OV3 was 8.16.

**Q.** `CC(=O)CC1CC2=C(C(=O)c3cccc(O)c3C2=O)C(O[C@H]2C[C@H](NC(=O)C(F)(F)F)[C@H](O)[C@H](C)O2)O1` (mixture of isomers) [BCH2098, (1'-S,1-S,3-R) and (1'-S,1-R,3-S)-1-(6-hydroxy-1-(2',3',6'-trideoxy-3'-trifluoroacetamido,4-hydroxy-L-lyxopyranose)-5,10-dioxo-3,4,5,10 tetrahydronaphtho-[2,3-c]pyran-3-yl) propane-2-one] was tested. Which VLB/OV3 did it give?
**A.** Its VLB/OV3 is 4.

**Q.** How did the VLB/OV3 turn out when `CC(=O)C1CC2=C(C(=O)c3ccccc3C2=O)C(OCC2CCCCN2)O1` (racemic) [BCH2069, Methyl-(1-O-[2'-piperidinemethanol]-5,10-dioxo-3,4,5,10-tetrahydronaphthaleno-[2,3-c]pyran-3-yl) ketone, racemic, hydrochloride] was run?
**A.** The VLB/OV3 was 2-9.8.

**Q.** For `CO[C@H]1O[C@H](C(=O)Nc2ccccc2)CC2=C1C(=O)c1ccccc1C2=O` (relative stereo) [BCH2041, (1,3-trans)-1-methoxy-3-N-anilinylcarbonyl-5,10-dioxo-3,4,5,10-tetrahydro-1H-naphtho-[2,3-c]-pyran], which VLB/OV3 is on record?
**A.** The VLB/OV3 was 5.

**Q.** Which VLB/OV3 does the source give for `CO[C@@H]1O[C@H](C(=O)Nc2ccccc2)CC2=C1C(=O)c1ccccc1C2=O` (relative stereo) [BCH2042, (1,3-cis)-1-methoxy-3-N-anilinylcarbonyl-5,10-dioxo-3,4,5,10-tetrahydro-1H-naphtho-[2,3-c]-pyran] here?
**A.** The VLB/OV3 was 3.51.

**Q.** How did the VLB/OV3 turn out when `CO[C@H]1O[C@H](C(=O)O)CC2=C1C(=O)c1ccccc1C2=O` (relative stereo) [BCH2045, (1,3-trans)-1-methoxy-3-carboxyl-5,10-dioxo-3,4,5,10-tetrahydro-1H-naphtho-[2,3-c]-pyran] was run?
**A.** Its VLB/OV3 is 3.

**Q.** Which VLB/OV3 does the source give for `CC(=O)[C@H]1CC2=C(C(=O)c3ccc(O)cc3C2=O)[C@H](O[C@H]2C[C@H](NC(=O)C(F)(F)F)[C@H](O)[C@H](C)O2)O1` [BCH1180, (1'S,1S,3R)-Methyl (5,10-dioxo-1-(2',3',6'-trideoxy-3'-trifluoroacetamido-L-lyxohexopyranose)-7-hydroxy-3,4,5,10-tetrahydro [2,3-C]pyran-3-yl) ketone] here?
**A.** The VLB/OV3 was 10.20.

**Q.** `CC(=O)[C@@H]1CC2=C(C(=O)c3ccc(O)cc3C2=O)[C@@H](O[C@H]2C[C@H](NC(=O)C(F)(F)F)[C@H](O)[C@H](C)O2)O1` [BCH1181, (1'S,1R,3S)-Methyl (5,10-dioxo-1-(2',3',6'-trideoxy-3'-trifluoroacetamido-L-lyxohexopyranose)-7-hydroxy-3,4,5,10-tetrahydro [2,3-C]pyran-3-yl) ketone] was tested. Which VLB/OV3 did it give?
**A.** The VLB/OV3 was 3.75.

**Q.** Which VLB/OV3 does the source give for `Nc1nc(C2CC3=C(CO2)C(=O)c2ccccc2C3=O)cs1` (centres unmarked) [BCH1189, 3-(3'-aminothiazolyl)-5,10-dioxo-1,3,4,5,10-pentahydronaphtho-[2,3-c]-pyran] here?
**A.** Its VLB/OV3 is 4.09.

**Q.** For `CC(=O)[C@@H]1CC2=C(C(=O)c3ccccc3C2=O)[C@@H](O[C@H]2C[C@H](NC(=O)C(F)(F)F)[C@H](I)[C@H](C)O2)O1` [BCH1620, (1'-S,1-R,3-S)-methyl-(1-[2',3',6'-trideoxy-3'-trifluoroacetamido-4'-iodo-L-lyxohexopyranose]-5,10-dioxo-3,4,5,10-tetrahydronaphtho-[2,3-c]-pyran-3-yl)-ketone], which VLB/OV3 is on record?
**A.** Its VLB/OV3 is 51.31.

**Q.** `COC(=O)C1(C(=O)OC)CC2=C(CO1)C(=O)c1ccccc1C2=O` [BCH1665, 3,3-bis-(methoxycarbonyl)-5,10-dioxo-3,4,5,10-tetrahydro-1H-naphtho-[2,3-c]-pyran] was tested. Which VLB/OV3 did it give?
**A.** The VLB/OV3 was 1.14.

**Q.** `CC(=O)O[C@H]1[C@@H](I)[C@H](O[C@H]2O[C@H](C(C)=O)CC3=C2C(=O)c2ccccc2C3=O)O[C@@H](C)[C@H]1OC(C)=O` [BCH1666, (1'S,1R,3S)-methyl-(1-[2',6'-dideoxy-3'-4'-diacetoxy-2'-iodo-L-lyxohexopyranose]-5,10-dioxo-3,4,5,10-tetrahydronaphtho [2,3-c]-pyran-3-yl) ketone] was tested. Which VLB/OV3 did it give?
**A.** Its VLB/OV3 is 0.75.

**Q.** With `CC(=O)O[C@H]1[C@@H](I)[C@H](O[C@@H]2O[C@@H](C(C)=O)CC3=C2C(=O)c2ccccc2C3=O)O[C@@H](C)[C@H]1OC(C)=O` [BCH1667, (1'S,1S,3R)-methyl-(1-[2',6'-dideoxy-3',4'-diacetoxy-2'-iodo-L-lyxohexopyranose]-5,10-dioxo-3,4,5,10-tetrahydronaphtho [2,3-c]-pyran-3-yl) ketone] as the compound, how does the VLB/OV3 read?
**A.** The VLB/OV3 was 7.32.

**Q.** How did the VLB/OV3 turn out when `COC[C@@H]1CC2=C(C(=O)c3ccccc3C2=O)[C@@H](O[C@H]2C[C@H](NC(=O)C(F)(F)F)[C@H](O)[C@H](C)O2)O1` [BCH1691, (1'S,1R,3S)-5,10-dioxo-3-methoxymethyl-1-(2',3',6'-trideoxy-3'-trifluoroacetamido-L-lyxohexopyranose)-3,4,5,10-tetrahydro-1H-naphtho-[2,3-c]-pyran] was run?
**A.** Its VLB/OV3 is 2.10.

**Q.** `COCC1(COC)CC2=C(C(=O)c3ccccc3C2=O)[C@H](O[C@H]2C[C@H](NC(=O)C(F)(F)F)[C@H](O)[C@H](C)O2)O1` [BCH1697] was tested. Which VLB/OV3 did it give?
**A.** The VLB/OV3 was 3.57.

**Q.** With `COC(=O)[C@H](CC(C)C)NC(=O)[C@H](CO[C@H]1O[C@H](C(C)=O)CC2=C1C(=O)c1ccccc1C2=O)NC(=O)OC(C)(C)C` [BCH1998, (1S,2'S,3S,5'S)-Methyl-(1-O-[N-BOC-Serine-Leucine-Me ester]-5,10-dioxo-3,4,5,10-tetrahydro-1-H-naphtho [2,3-c]pyran-3-yl) ketone] as the compound, how does the VLB/OV3 read?
**A.** Its VLB/OV3 is 13.28.

**Q.** With `COC(=O)[C@H](CC(C)C)NC(=O)[C@@H](N)CO[C@H]1O[C@H](C(C)=O)CC2=C1C(=O)c1ccccc1C2=O` [BCH2000, (1S,2'S,3S,5'S)-Methyl-(1-O-[Serine-Leucine-Me ester]-5,10-dioxo-3,4,5,10-tetrahydro-1-H-naphtho [2,3-c]pyran-3-yl) ketone hydrochloride] as the compound, how does the VLB/OV3 read?
**A.** Its VLB/OV3 is 69.89.

**Q.** `CC(=O)[C@H]1CC2=C(C(=O)c3ccccc3C2=O)[C@H](O[C@@H]2O[C@@H](C)[C@@H](O)[C@@H](O)[C@H]2I)O1` [BCH2014, (1'S,1S,3R)-methyl-(1-[2',6'-dideoxy-3',4'-dihydroxy-2'-iodo-L-lyxohexopyranose]-5,10-dioxo-3,4,5,10-tetrahydronaphtho [2,3-c]-pyran-3-yl)-ketone] was tested. Which VLB/OV3 did it give?
**A.** The VLB/OV3 was 1.85.
